According to PMC9875641, “Ophthalmic Solution of Smart Supramolecular Peptides to Capture Semaphorin 4D against Diabetic Retinopathy” (Advanced Science, 2022):

Tests used:
retina = assay: Biosafety in the retina after intraocular injection; assay type: in vivo, mouse; conditions: for pathological changes in the retina (HE staining): 30 d after intraocular injection; for abnormalities in retinal pigment epithelium, rod and cone layer, outer nuclear layer and retinal ganglion cells (electron microscopy): mouse, in vivo
Excerpt: After 30 d of SSP‐1 and SSP‐2 intraocular injection, the biosafety of SSP‐1 and SSP‐2 was systematically studied by H&E staining and electron microscopy.

pericytes = assay: Transwell migration of pericytes induced by recombinant Sema4D; assay type: cell-based, mouse; conditions: transwell assay, n = 3
[1] = test system: in vitro BRB model (ARPE-19 layer and HUVEC layer)
Cy5-labeled sSema4D = target: T1, Cy5-labeled sSema4D (Homo sapiens, UniProt Q92854); assay: CLSM recognition and capture of sSema4D; assay type: binding; conditions: FITC-labeled SSP with Cy5-labeled sSema4D, 6 h
T1 construct: purchased Novoprotein Ltd. (Suzhou, China)
T1 sequence (Q92854 22-734 limits assumed): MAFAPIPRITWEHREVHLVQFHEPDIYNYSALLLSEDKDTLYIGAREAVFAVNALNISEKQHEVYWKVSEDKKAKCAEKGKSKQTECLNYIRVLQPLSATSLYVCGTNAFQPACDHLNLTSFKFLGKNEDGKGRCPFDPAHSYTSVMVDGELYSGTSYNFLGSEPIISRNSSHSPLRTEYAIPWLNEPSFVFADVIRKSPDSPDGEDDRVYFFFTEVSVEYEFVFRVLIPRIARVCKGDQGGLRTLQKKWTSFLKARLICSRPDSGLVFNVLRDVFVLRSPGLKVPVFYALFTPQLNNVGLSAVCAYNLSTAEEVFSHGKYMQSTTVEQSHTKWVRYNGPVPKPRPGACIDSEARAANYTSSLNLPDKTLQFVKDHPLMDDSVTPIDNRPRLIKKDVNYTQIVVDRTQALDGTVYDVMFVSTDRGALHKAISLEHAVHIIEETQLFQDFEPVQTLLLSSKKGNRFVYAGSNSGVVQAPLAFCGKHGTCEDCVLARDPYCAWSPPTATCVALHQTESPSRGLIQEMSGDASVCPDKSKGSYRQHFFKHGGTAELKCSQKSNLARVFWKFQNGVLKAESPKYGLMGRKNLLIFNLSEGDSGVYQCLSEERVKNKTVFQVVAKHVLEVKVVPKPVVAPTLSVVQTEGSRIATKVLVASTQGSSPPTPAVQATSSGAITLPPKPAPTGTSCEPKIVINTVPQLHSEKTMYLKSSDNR
Experimental: FITC‐labeled SSP‐1 or SSP‐2 and Cy5‐labeled sSema4D proteins were synthesized. Cy5‐labeled sSema4D were incubated with FITC‐labeled SSP‐1 and SSP‐2 nanostructure solutions for 6 h, respectively. […]
a resolution of 1.0 nm and a scanning speed of 300 nm/min. For each measurement, three spectra were collected and averaged.
CLSM observation. Sema4D protein was purchased from Novoprotein Ltd. (Suzhou, China). Sema4D protein cultured with SSP-1 or SSP-2 nanomaterials (30 μM) for 4 h were imaged using a Zeiss LSM710 confocal laser scanning microscope
(Ultra-VIEWVox, PerkinElmer). The parameters of confocal laser scanning microscope was a 40× objective lens.
Patient. Vitreous humor samples of DR patients were obtained immediately before intravitreal injection of anti-VEGF agents. Control vitreous humor samples were collected from nondiabetic patients receiving surgery for idiopathic macular hole. All of the human vitreous humor samples were collected based on informed consent. The vitreous samples were centrifuged at 4°C, and the supernatants were aliquoted into several sterile tubes and stored at -80°C. The procedure was approved by an ethics committee of Tongji Medical College, Huazhong University of Science and Technology, and strictly followed the Declaration of Helsinki guidelines.
Cell culture. […]

OIR model = assay: Oxygen-induced retinopathy (OIR) model, pathological retinal neovascularization; assay type: in vivo, mouse; conditions: for reduction of pathological retinal neovascularization by eye drops plus anti-VEGF injection compared with anti-VEGF injection alone: isolectin B4, anti-VEGF antibody 2 µg intravitreal at P12, eye drops twice a day until P17, on average
Experimental: follows: 5’-[…]-3’, 5’- […]
OIR. OIR model was performed as previously described. The pups and their mothers […]
were exposed to 75% oxygen at 7-12 days after birth, and then exposed to indoor air […]
for another 5 days. At P17, the mice were anesthetized and sacrificed, and the retinas […]
Isolectin B4. Isolectin B4 staining for retinal blood vessel visualization is as […]
described above. After fixing the eyeball with 4% paraformaldehyde (overnight at 4 […]
degrees), the intact retina was peeled off using microscissors and micro tweezers.
After rupture of the membrane with 2% Triton X-100, the retina was placed in the […]
configured isolectin B4 staining (1:100) overnight at 4 degrees. Acquire multiple […]
overlapping (10-20% overlap) images using a fluorescence microscope and merge […]
them together in Adobe Photoshop to visualize the entire retina. Use ImageJ software to quantify the area of pathological neovascularization relative to the total retinal area. […]
Statistical analysis. Statistical analysis was conducted using Graphpad Prism 8.0 software. All data were expressed by mean ± SD. Unpaired two-tailed Student’s t-test (two groups) or one-way ANOVA (more than 2 groups) was used to analyze the statistical significances of the data. Person’s correlation analysis was conducted to […]

Zeta potential of SSPs = assay type: physicochemical; conditions: self-assembled SSP under aqueous condition
Excerpt: Artificial tears containing SSPs were developed and dropped into eyes. SSPs accumulated in the vitreous cavity. To examine the behavior of SSPs monomer in artificial tear, it was fast injected into water. Under the aqueous condition, the SSPs self‐assembled into spherical NPs or nanorods, a function of its to C16 and FFVLK domains with a hydrophobic unit. The morphology of SSP‐1 was NPs with the average size of 44.8 ± 2.9 nm. […] Besides, the zeta potential of SSP‐1 and SSP‐2 was positive charged with the value of 45.7 and 40.2 mV, respectively (Figure 3C). The positive charged SSPs penetrate blood‐eye barrier well.
In addition, KLVFF sequence, a sheet structure with strong hydrogen‐bonding was introduced into SSPs, we could distinctly observe the secondary structure of SSPs by circular dichroism (CD) spectroscopy. […] The percentage of β‐sheet after incubation with sSema4D in SSP‐1 and SSP‐2 were 85.6% and 42.3%, respectively, indicative of a highly organized packing of NFs in SSP‐1. […] The high percentage of β‐sheet structure in NFs stabilized the formation of nanostructure networks, due to its strong hydrogen‐bonding KLVFF sequence. Moreover, we carried out the cytotoxicity of SSP‐1 and SSP‐2 by using a standard CCK‐8 (Figure 3D). […] Finally, we investigated the recognition of sSema4D and SSP‐1 and SSP‐2 by confocal laser scanning microscope (CLSM).

[2] = eye drops 5 µL per eye twice daily P12 to P17, n = 8, equal to intraocular anti-Sema4D antibody
[3] = eye drops 5 µL per eye twice daily P12 to P17, vs littermate controls, n = 7
[4] = intravitreal injection at P12, retinas at P17, n = 8, effect equal to Sema4D antibody
[5] = intravitreal injection at P12, retinas at P17, vs littermate controls, n = 6

| transfer across the in vitro BRB [1] | recognition and trapping of sSema4D (merge images) (Cy5-labeled sSema4D) | zeta potential (Zeta potential of SSPs) [mV] | Substance | pathological changes in the retina (HE staining) (retina) | abnormalities in retinal pigment epithelium, rod and cone layer, outer nuclear layer and retinal ganglion cells (electron microscopy) (retina) | recombinant Sema4D protein-induced pericyte migration (pericytes) | pathological retinal vascular neovascularization (isolectin B4 staining) (OIR model; [2]) | numbers of preretinal neovascular cells (OIR model; [3]) | pathological retinal vascular neovascularization (isolectin B4 staining) (OIR model; [4]) | numbers of preretinal neovascular cells (OIR model; [5]) | reduction of pathological retinal neovascularization by eye drops plus anti-VEGF injection compared with anti-VEGF injection alone (OIR model) [%] |
| --- | --- | --- | --- | --- | --- | --- | --- | --- | --- | --- | --- |
| effectively transferred across the BRB | could completely cover the sSema4D | 40.2 | C16‐FFVLK‐KNKAAKG [SSP-2, smart supramolecular peptide, C16‐FFVLK‐KNKAAKG, self-assembling, captures sSema4D] | no significant pathological changes | no significant abnormalities | reduced | decreased | significantly decreased | decreased | significantly reduced | 22.68 |
| effectively transferred across the BRB | could completely cover the sSema4D | 45.7 | C16‐FFVLK‐KQKRPRH [SSP-1, smart supramolecular peptide, C16‐FFVLK‐KQKRPRH, self-assembling, captures sSema4D] | no significant pathological changes | no significant abnormalities | reduced | decreased | significantly decreased | decreased | significantly reduced | 25.72 |
